Experimental data as given in PubChem BioAssay AID2060362 (Molecular Pharmacology Branch, DTP, NCI, 2025).

System: 128128-338-R-J1-PDC spheroids, viability % test/control
Experiment: Anticancer human tumor 128128-338-R-J1-PDC patient-derived melanoma cell line growth inhibition [TAK]
Conditions: spheroids with HUVEC and MSC; for IC50: curve of first compound; for viability, T/C: stronger effect = lower value
Procedure, shortened: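 Spheroids of 60% malignant cells, 25% HUVEC and 15% hMSC were exposed to targeted agents combined with TAK-243 or ipatasertib. Concentrations started at or near clinical Cmax (10 microM if unknown) and descended in half-log steps.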

[1] = second compound 0.3 µM, first compound 0.0316 µM
[2] = second compound 0.3 µM, first compound 0.1 µM
[3] = second compound 0.3 µM, first compound 0.316 µM
[4] = second compound 0.3 µM, first compound 1 µM
[5] = second compound 0.3 µM, first compound 3.16 µM
[6] = second compound 0.3 µM, first compound 10 µM
[7] = second compound 0.949 µM, first compound 0.0316 µM
[8] = second compound 0.949 µM, first compound 0.1 µM
[9] = second compound 0.949 µM, first compound 0.316 µM
[10] = second compound 0.949 µM, first compound 1 µM
[11] = second compound 0.949 µM, first compound 3.16 µM
[12] = second compound 0.949 µM, first compound 10 µM
[13] = second compound 3 µM, first compound 0.0316 µM
[14] = second compound 3 µM, first compound 0.1 µM
[15] = second compound 3 µM, first compound 0.316 µM
[16] = second compound 3 µM, first compound 1 µM
[17] = second compound 3 µM, first compound 3.16 µM
[18] = second compound 3 µM, first compound 10 µM
[19] = second compound 9.49 µM, first compound 0.0316 µM
[20] = second compound 9.49 µM, first compound 0.1 µM
[21] = second compound 9.49 µM, first compound 0.316 µM
[22] = second compound 9.49 µM, first compound 1 µM
[23] = second compound 9.49 µM, first compound 3.16 µM
[24] = second compound 9.49 µM, first compound 10 µM
[25] = second compound 30 µM, first compound 0.0316 µM
[26] = second compound 30 µM, first compound 0.1 µM
[27] = second compound 30 µM, first compound 0.316 µM
[28] = second compound 30 µM, first compound 1 µM
[29] = second compound 30 µM, first compound 3.16 µM
[30] = second compound 30 µM, first compound 10 µM
[31] = second compound 0.3 µM, first compound 0.00316 µM
[32] = second compound 0.3 µM, first compound 0.01 µM
[33] = second compound 0.949 µM, first compound 0.00316 µM
[34] = second compound 0.949 µM, first compound 0.01 µM
[35] = second compound 3 µM, first compound 0.00316 µM
[36] = second compound 3 µM, first compound 0.01 µM
[37] = second compound 9.49 µM, first compound 0.00316 µM
[38] = second compound 9.49 µM, first compound 0.01 µM
[39] = second compound 30 µM, first compound 0.00316 µM
[40] = second compound 30 µM, first compound 0.01 µM
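For viability, T/C in this document: 100% = DMSO vehicle wells.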

Row | Compound | IC50 (second compound 0.3 µM) [nM] | IC50 (second compound 0.949 µM) [nM] | IC50 (second compound 3 µM) [nM] | IC50 (second compound 9.49 µM) [nM] | IC50 (second compound 30 µM) [nM] | viability, T/C [1] [%] | viability, T/C [2] [%] | viability, T/C [3] [%] | viability, T/C [4] [%] | viability, T/C [7] [%] | viability, T/C [8] [%] | viability, T/C [9] [%] | viability, T/C [10] [%] | viability, T/C [13] [%] | viability, T/C [14] [%] | viability, T/C [15] [%] | viability, T/C [19] [%] | viability, T/C [20] [%] | viability, T/C [25] [%] | viability, T/C [26] [%] | also measured
1 | CC(C)(C)c1nc(-c2cccc(NS(=O)(=O)c3c(F)cccc3F)c2F)c(-c2ccnc(N)n2)s1 + CC(C)NCC(C(=O)N1CCN(c2ncnc3c2C(C)CC3O)CC1)c1ccc(Cl)cc1 | 46 | 41.2 | < 31.6 | < 31.6 | < 31.6 | 61 | 27.1 | 6.08 | 1.93 | 58.6 | 21 | 2.85 | 1.56 | 29.6 | 8.97 | 1.74 | 12.7 | 1.27 | 0.69 | 0.56 | viability, T/C [5]: 1.83%; viability, T/C [6]: 8.83%; viability, T/C [11]: 0.98%; viability, T/C [12]: 2.06%; viability, T/C [16]: 1.17%; viability, T/C [17]: 0.79%; viability, T/C [18]: 0.99%; viability, T/C [21]: 1.2%; viability, T/C [22]: 0.7%; viability, T/C [23]: 0.6%; viability, T/C [24]: 0.64%; viability, T/C [27]: 0.78%; viability, T/C [28]: 0.44%; viability, T/C [29]: 0.34%; viability, T/C [30]: 0.42%
2 | CC(C)n1nc(-c2ccc3oc(N)nc3c2)c2c(N)ncnc21 + CC(C)NCC(C(=O)N1CCN(c2ncnc3c2C(C)CC3O)CC1)c1ccc(Cl)cc1 | 15.4 | 14.1 | 7.82 | 1.81 | < 0.316 | 31.3 | 6.8 |  |  | 29 | 4.5 |  |  | 18 | 4.85 |  | 5.97 | 0.5 | 0.38 | 0.2 | viability, T/C (second compound 0.3 µM, first compound 0.000316 µM): 96%; viability, T/C (second compound 0.3 µM, first compound 0.001 µM): 96.5%; viability, T/C [31]: 89.6%; viability, T/C [32]: 59.2%; viability, T/C (second compound 0.949 µM, first compound 0.000316 µM): 88.9%; viability, T/C (second compound 0.949 µM, first compound 0.001 µM): 95.8%; viability, T/C [33]: 80.1%; viability, T/C [34]: 58.4%; viability, T/C (second compound 3 µM, first compound 0.000316 µM): 88.5%; viability, T/C (second compound 3 µM, first compound 0.001 µM): 77.5%; viability, T/C [35]: 68.5%; viability, T/C [36]: 47%; viability, T/C (second compound 9.49 µM, first compound 0.000316 µM): 66.6%; viability, T/C (second compound 9.49 µM, first compound 0.001 µM): 57.3%; viability, T/C [37]: 43%; viability, T/C [38]: 17.2%; viability, T/C (second compound 30 µM, first compound 0.000316 µM): 16.4%; viability, T/C (second compound 30 µM, first compound 0.001 µM): 18.2%; viability, T/C [39]: 11.7%; viability, T/C [40]: 2.86%
3 | COc1c(OCCCN2CCOCC2)ccc2c3n(c(=NC(=O)c4cnc(N)nc4)nc12)CCN3 + CC(C)NCC(C(=O)N1CCN(c2ncnc3c2C(C)CC3O)CC1)c1ccc(Cl)cc1 | 160 | 154 | 92.5 | 47.6 | < 3.16 | 85.7 | 71.9 | 19.8 | 10.2 | 90.3 | 68.8 | 19.5 | 6.65 | 77.7 | 47.3 | 19.3 | 57.5 | 33.3 | 13.6 | 8.31 | viability, T/C [31]: 99.3%; viability, T/C [32]: 103%; viability, T/C [33]: 93.4%; viability, T/C [34]: 107%; viability, T/C [35]: 90.8%; viability, T/C [36]: 88.3%; viability, T/C [16]: 6.49%; viability, T/C [37]: 62%; viability, T/C [38]: 74.2%; viability, T/C [21]: 11.9%; viability, T/C [22]: 8.21%; viability, T/C [39]: 19.5%; viability, T/C [40]: 19.5%; viability, T/C [27]: 1.28%; viability, T/C [28]: 0.56%
4 | Cc1nc(NC(=O)N2CCCC2C(N)=O)sc1-c1ccnc(C(C)(C)C(F)(F)F)c1 (stereo not given) + CC(C)NCC(C(=O)N1CCN(c2ncnc3c2C(C)CC3O)CC1)c1ccc(Cl)cc1 | > 10000 | > 10000 | > 10000 | 3460 | < 31.6 | 102 | 105 | 102 | 105 | 89 | 103 | 100 | 91.7 | 95.8 | 88.8 | 90.7 | 69.5 | 70.2 | 24.1 | 21.2 | viability, T/C [5]: 105%; viability, T/C [6]: 73.2%; viability, T/C [11]: 82.7%; viability, T/C [12]: 81.8%; viability, T/C [16]: 84.7%; viability, T/C [17]: 80%; viability, T/C [18]: 54.5%; viability, T/C [21]: 68.5%; viability, T/C [22]: 64.8%; viability, T/C [23]: 51.8%; viability, T/C [24]: 23.7%; viability, T/C [27]: 22.1%; viability, T/C [28]: 16.6%; viability, T/C [29]: 15%; viability, T/C [30]: 3.6%
